Patent publication EP0469547B1, “4-Amino-delta4,6-steroids and their use as 5alpha-reductase inhibitors” (MERRELL PHARMACEUTICALS INC., priority 1990, dated 1992)

The compounds below were run against T1, steroid 5α-reductase (Homo sapiens, UniProt P31213) (assay: 5α-reductase inhibition test with human prostate microsomal preparations (conversion of 1,2-³H-testosterone to dihydrotestosterone, HPLC)).
T1 construct: Microsomal preparations of the steroid 5α-reductase enzyme (protein) were obtained from human prostate tissue; from tissue; host or cells: human prostate tissue (microsomal preparation)
T1 sequence (P31213 1-254): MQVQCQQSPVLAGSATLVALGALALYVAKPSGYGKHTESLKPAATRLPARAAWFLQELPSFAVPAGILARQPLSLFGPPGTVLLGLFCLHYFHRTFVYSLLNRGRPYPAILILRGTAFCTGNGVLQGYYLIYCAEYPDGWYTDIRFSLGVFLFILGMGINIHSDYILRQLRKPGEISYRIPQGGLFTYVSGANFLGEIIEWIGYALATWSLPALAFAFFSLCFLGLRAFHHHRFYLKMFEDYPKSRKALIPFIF
Type: biochemical
Description: Microsomal preparations of the steroid 5α-reductase enzyme (protein) were obtained from human prostate tissue and stored in aliquots. Protein concentration was determined prior to use of the samples. In the method itself, individual assays for 5α-reductase activity contained 0.1M phosphate citrate buffer, pH 5.6, 1mM EDTA, 7 to 22 µg of microsomal protein, 1mM NADPH, 5 mM glucose-6-phosphate, 1 IU/ml glucose-6-phosphate dehydrogenase, 1,2-³H-testosterone, and test compound, dissolved in dimethyl sulfoxide and then diluted in phosphate-citrate buffer to yield a final assay concentration of 0.1% (v/v) dimethyl sulfoxide. The same buffer and the same quantity of dimethyl sulfoxide, without any test compound is used for the control assays. The total assay volume was 100 µl and assays were performed in duplicate. The reaction was initiated by the addition of the testosterone, and incubated for 30 minutes at 25°C. The assay is linear with time to 30 minutes.
Depending on the nature of the inhibition, testosterone concentration was typically varied from 0.15 µM (approximately 0.5 Km) to 10 Km with radioactive label constant at 0.15 µCi per assay. The amount of test compound added was varied to provide final concentrations of 1 nM to 100 µM. The reaction was quenched by the addition of 50 volumes of chloroform:methanol (2:1). The steroids were then extracted and separated by high pressure liquid chromatography and the amounts of testosterone and dihydrotestosterone present were determined to determine the percent conversion of testosterone to dihydrotestosterone and to calculate the 5α-reductase activity. The activity of the test compound was then expressed as the IC₅₀, or the concentration of test compound that produced a 50% inhibition of the testosterone conversion. When compounds of the present invention were tested in this way, the following results were observed: […]

In order of rising IC50:
1. CC(C)(C)NC(=O)[C@H]1CC[C@H]2[C@@H]3C=CC4=C(N)C(=O)CC[C@]4(C)[C@H]3CC[C@]12C [4-Amino-N-(1,1-dimethylethyl)-3-oxoandrosta-4,6-diene-17β-carboxamide]  8 nM
2. CC(C)N(C(=O)[C@H]1CC[C@H]2[C@@H]3C=CC4=C(N)C(=O)CC[C@]4(C)[C@H]3CC[C@]12C)C(C)C [4-Amino-N,N-bis(1-methylethyl)-3-oxoandrosta-4,6-diene-17β-carboxamide]  16 nM
3. CC(=O)[C@H]1CC[C@H]2[C@@H]3C=CC4=C(N)C(=O)CC[C@]4(C)[C@H]3CC[C@]12C [4-Aminopregna-4,6-diene-3,20-dione]  25 nM
